Our source for the MIC, Kd and IC50 values is ChEMBL document CHEMBL3414448, “Advances in the discovery of novel antimicrobials targeting the assembly of bacterial cell division protein FtsZ” (Eur J Med Chem, 2015).

The subject of test [1] is Staphylococcus aureus. The test can be described thus: Antimicrobial activity against Staphylococcus aureus UAMS1. It counts as functional.
Test [2] concerns Staphylococcus aureus. In words: Antimicrobial activity against community acquired methicillin-resistant Staphylococcus aureus USA300-LAC. The test is classed as functional.
The subject of test [3] is Staphylococcus aureus. The test can be described thus: Antimicrobial activity against multidrug-resistant Staphylococcus aureus. The test is classed as functional.
In test [4] the test system is Staphylococcus aureus. The test can be described thus: Antimicrobial activity against methicillin-resistant Staphylococcus aureus. It counts as functional.
Test [5] has as its system Enterococcus. In words: Antimicrobial activity against […]-resistant Enterococcus. It counts as functional.
Test [6] relates to Mycobacterium tuberculosis. In words: Antimicrobial activity against Mycobacterium tuberculosis. It counts as functional.
In test [7] the test system is Bacillus subtilis. In words: Antimicrobial activity against Bacillus subtilis 168. The test is classed as functional.
The target of test [8] is T1, Cell division protein FtsZ (Mycobacterium tuberculosis, UniProt P9WN95).
T1 sequence (P9WN95 whole entry): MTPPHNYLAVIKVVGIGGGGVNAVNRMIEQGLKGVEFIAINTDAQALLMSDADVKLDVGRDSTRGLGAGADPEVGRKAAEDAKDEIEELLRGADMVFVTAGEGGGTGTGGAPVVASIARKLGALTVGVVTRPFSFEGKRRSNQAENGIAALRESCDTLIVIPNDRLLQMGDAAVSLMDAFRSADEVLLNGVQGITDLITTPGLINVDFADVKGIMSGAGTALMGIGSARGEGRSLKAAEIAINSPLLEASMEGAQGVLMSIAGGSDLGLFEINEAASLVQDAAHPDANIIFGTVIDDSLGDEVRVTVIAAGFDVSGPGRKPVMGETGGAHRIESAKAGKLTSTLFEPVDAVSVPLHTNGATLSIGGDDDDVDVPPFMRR
The test can be described thus: Binding affinity to Mycobacterium tuberculosis FtsZ.

The nature of test [9]: Inhibition of FtsZ (unknown origin) assessed as reduction in enzyme GTPase activity.
The subject of test [10] is Staphylococcus aureus. The test can be described thus: Antimicrobial activity against Staphylococcus aureus. It counts as functional.
Test [11] concerns Escherichia coli. In words: Antimicrobial activity against Escherichia coli. It counts as functional.
Test [12] has as its system Acinetobacter baumannii. In words: Antimicrobial activity against multidrug-resistant Acinetobacter baumannii 12159796. The test is classed as functional.
Test [13] concerns Pseudomonas aeruginosa. The test can be described thus: Antimicrobial activity against Pseudomonas aeruginosa ATCC 27853. The test is classed as functional.
For test [14], the system named is Escherichia coli. In words: Antimicrobial activity against Escherichia coli ATCC 35218. The test is classed as functional.
Test [15] has as its system Streptococcus pneumoniae. The test can be described thus: Antimicrobial activity against Streptococcus pneumoniae ATCC 49619. It counts as functional.
Test [16] deals with Enterococcus faecalis. In words: Antimicrobial activity against Enterococcus faecalis ATCC 29212. It counts as functional.
The subject of test [17] is Klebsiella pneumoniae. The test can be described thus: Antimicrobial activity against ESBL producing Klebsiella pneumoniae ATCC 700603. The test is classed as functional.
In test [18] the test system is Enterobacter cloacae. In words: Antimicrobial activity against multidrug-resistant Enterobacter cloacae 12161389. The test is classed as functional.
Test [19] concerns Enterococcus faecium. In words: Antimicrobial activity against ampicillin-resistant and levofloxacin-resistant Enterococcus faecium 12160560. The test is classed as functional.
Test [20] has as its system Staphylococcus aureus. The test can be described thus: Antimicrobial activity against methicillin-sensitive Staphylococcus aureus ATCC 29213. It counts as functional.
The test system of test [21] is Bacillus subtilis. The test can be described thus: Antimicrobial activity against Bacillus subtilis. It counts as functional.
Test [22] deals with T2, Cell division protein FtsZ (Escherichia coli K-12, UniProt P0A9A6).
T2 sequence (P0A9A6 whole entry): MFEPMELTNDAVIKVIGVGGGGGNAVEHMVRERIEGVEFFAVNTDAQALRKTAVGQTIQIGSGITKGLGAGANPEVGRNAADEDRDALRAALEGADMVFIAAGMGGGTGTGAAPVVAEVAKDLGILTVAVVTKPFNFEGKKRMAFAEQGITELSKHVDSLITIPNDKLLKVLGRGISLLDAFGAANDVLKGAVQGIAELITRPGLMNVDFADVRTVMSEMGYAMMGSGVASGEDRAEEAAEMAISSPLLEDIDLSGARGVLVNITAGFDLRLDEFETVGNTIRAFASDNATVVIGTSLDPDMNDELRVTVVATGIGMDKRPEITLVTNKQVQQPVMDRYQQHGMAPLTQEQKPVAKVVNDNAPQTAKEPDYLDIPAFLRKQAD
The test can be described thus: Inhibition of Escherichia coli FtsZ GTPase activity.

Test [23] concerns Pseudomonas fluorescens. The test can be described thus: Antimicrobial activity against Pseudomonas fluorescens. The test is classed as functional.
Test [24] deals with T2, Cell division protein FtsZ. The test can be described thus: Inhibition of Escherichia coli FtsZ.
The nature of test [25]: Inhibition of FtsZ (unknown origin) assessed as reduction in enzyme assembly.
Test [26] has as its target T2, Cell division protein FtsZ. In words: Inhibition of Escherichia coli FtsZ polymerization.
Test [27] has as its system Escherichia coli. The test can be described thus: Antimicrobial activity against Escherichia coli relative to control. It counts as functional.
The test system of test [28] is Bacillus subtilis. The test can be described thus: Antimicrobial activity against Bacillus subtilis relative to control. It counts as functional.

What is called MIC is the least concentration at which growth counts as inhibited. High values mean weaker potency, low ones greater potency. The term Kd denotes the constant that tells how readily two partners part at equilibrium. Low readings indicate a tighter complex, high ones a looser complex. In general, IC50 refers to the concentration that gives 50% inhibition.

Molecules are shown by their SMILES. Converted amounts (≈) assume the structure as drawn.

For the molecule `Oc1cc(O)cc(C/C(Cl)=C\Cc2cc(O)c(Cl)cc2O)c1`, the MIC in test [1] and in test [2] was 1 µg/mL (≈ 2.93 µM) in each case.
Consider `Oc1cc(O)c2c(c1)C/C(Cl)=C\Cc1cc(c(Cl)cc1O)Oc1c(O)cc(cc1O)C/C(Cl)=C\Cc1cc(c(Cl)cc1O)O2`, for which the MIC came out at 1.3 µg/mL (≈ 1.92 µM) in test [3], 1.5 µg/mL (≈ 2.21 µM) in test [4] and 2.9 µg/mL (≈ 4.28 µM) in test [5].
Turning to `CC(C)c1c(O)ccc2c1CC[C@H]1C(C)(C)CCC[C@]21C` [TOTAROL], the minimal inhibitory concentration (MIC) in test [6] is 16 µg/mL (≈ 55.9 µM); in test [7], 0.6 µg/mL (≈ 2.09 µM); in test [10], 1.5 µg/mL (≈ 5.24 µM); in [11] it was over 400 µg/mL. Besides, binding in [8] was put at a Kd of 11 µM. The IC50 in [9] came out at 40.8 µM.
As to `O=C(Oc1cc(OC(=O)c2cc(O)cc(O)c2)c2ccccc2c1)c1cc(O)c(O)c(O)c1`, the MIC came to 64 µg/mL (≈ 143 µM) in test [12]; 64 µg/mL (≈ 143 µM) in [13]; 128 µg/mL (≈ 285 µM) in [14]; 16 µg/mL (≈ 35.7 µM) in test [7]; 32 µg/mL (≈ 71.4 µM) in test [15]; 32 µg/mL (≈ 71.4 µM) in [16]. Besides, the MIC in [17] turned out to be 128 µg/mL (≈ 285 µM); in [18], 128 µg/mL (≈ 285 µM); in test [19], 32 µg/mL (≈ 71.4 µM); in [20] it was 16 µg/mL (≈ 35.7 µM).
Turning to `CCC(CC)c1cc([C@H]2CN3CC[C@H]2C[C@@H]3CN)nc(-c2ccncc2)n1`, the IC50 in test [9] was 37.5 µM. Moreover, the minimum inhibitory concentration (MIC) is 9 µg/mL (≈ 24.6 µM) in [10] and 18 µg/mL (≈ 49.2 µM) in test [11].
Turning to `O=C1C[C@@H](c2ccccc2)Oc2c(Cc3ccccc3O)c(O)c(Cc3ccccc3O)c(O)c21` [DICHAMANETIN], the MIC in test [21] turned out to be 5.01 µg/mL (≈ 10.7 µM); in test [10], 0.8 µg/mL (≈ 1.71 µM). Moreover, it took 12.5 µM to reach half-maximal inhibition in [22] (IC50).
Consider `COc1ccc(/N=C/c2ccc(OC(C)=O)c(OC)c2[N+](=O)[O-])cc1`, for which the minimal inhibitory concentration (MIC) in test [23], in [21], in test [10] and in test [11] was 1.56 µg/mL (≈ 4.53 µM) throughout.
Take `O=C(Oc1cc(OC(=O)c2cc(O)c(O)c(O)c2)c2ccccc2c1)c1cc(O)c(O)c(O)c1`: the MIC in test [12] stood at 64 µg/mL (≈ 138 µM); in test [13] it was 128 µg/mL (≈ 276 µM); in test [14], 128 µg/mL (≈ 276 µM); in test [7], 64 µg/mL (≈ 138 µM); in [15] it was 64 µg/mL (≈ 138 µM); in [16], 64 µg/mL (≈ 138 µM). For the same molecule, the MIC in [17] was found to be 128 µg/mL (≈ 276 µM); in test [18], 128 µg/mL (≈ 276 µM); in test [19], 64 µg/mL (≈ 138 µM); in [20], 32 µg/mL (≈ 68.9 µM).
Consider `COc1c(OC(C)=O)ccc(/C=N/c2c(C(C)C)cccc2C(C)C)c1[N+](=O)[O-]`, for which the MIC in test [23], in test [21], in [10] and in test [11] was 6.25 µg/mL (≈ 15.7 µM) each time.
Regarding `CN(C)CCNc1nc(/C=C/c2ccc(Cl)cc2)nc2cc3ccccc3cc12`, in test [24], the half-inhibitory concentration (IC50) stood at 12 µM.
As to `COc1ccc2cc3[n+](cc2c1OC)CCc1cc2c(cc1-3)OCO2` [BERBERINE], the values for the IC50 in test [25] and in test [9] were 10 µM and 16 µM, respectively.
On to `O=C/C=C/c1ccccc1` [CINNAMALDEHYDE], for which the minimum inhibitory concentration (MIC) in test [21] is 0.5 µg/mL (≈ 3.78 µM); in [4] it was 0.25 µg/mL (≈ 1.89 µM); in test [27], 1000 µg/mL (≈ 7570 µM); in [28], 500 µg/mL (≈ 3780 µM); in test [11], 1 µg/mL (≈ 7.57 µM). Besides, the concentration for half-maximal inhibition (IC50) in test [26] turned out to be 6.86 µM; in [22], 5.81 µM.
